# Measurements as given in US6891063B1, “Salts of asiatic and madecassic acid suitable for the preparation of pharmaceutical and cosmetic compositions” (Euphar Group S.r.l., priority 1999, dated 2005).
# Tests used:
# [1] = system: Croton oil induced oedema in the mouse ear; experiment: Test of topical antiinflammatory activity: Croton oil dermatitis in the mouse ear; type: in vivo; settings: for ID50 (dose level able to reduce by 50% the oedematous response): linear interpolation from the dose-response relationship, indomethacin value confirmed from past data; for Inhibition (%) of oedema / Oedema (mg) m ± E.S.: 6 hours
# Description: 3. Test of Topical Antiinflammatory Activity
# The antiinflammatory activity of Asialene and L-Asialene was evaluated in comparison to that of the NSAID indomethacin. As experimental model, the Croton oil dermatitis induced in the mouse ear was used (Tubaro et al., Agents & Actions 17: 347-349).
# The experimental inflammation was induced on the right ear (surface: about 1 cm^2) of anaesthetised mice (145 mg/kg ketamine hydrochloride i.p.) by application of 80 μg of Croton oil (Sigma-Italy) in 15 μl acetone on the right ear of mice, the left remaining untreated. The tested substances were dissolved in the Croton oil solution. Six hours after the dermatitis induction, the animals were sacrificed and a punch (6 mm diameter) was excised from both the treated and the untreated ears and weighed. The Croton oil induced oedema was quantified by measuring the difference in weight between the treated and untreated (opposite) ear samples. The anti-oedema activity was expressed as percent inhibition of the oedematous response in animals treated with the test substances in comparison to the animals treated with the irritant alone. Male albino Swiss mice CD-1 (Harlan-Italy), weighing 20-32 g, were used. For each substance and dose level, 10 animals were used.
# The effects on the vascular response were evaluated as percent oedema inhibition. […] For each substance, the dose level able to reduce by 50% the oedematous response (ID50) was calculated by linear interpolation from the dose-response relationship.
# Asialene and L-Asialene were administered at equimolar doses.
# [2] = prior art statement; cited from earlier work
# platelet = experiment: Evaluation of the platelet aggregation inhibiting effect in PRP; type: cell-based, human; settings: 70 μg/ml
# Description: 2. Evaluation of the Platelet Aggregation Inhibiting Effect
# Blood taken from healthy volunteers not submitted to pharmacological therapy during one week, was gathered in polyethylene test-tubes containing 3.8% sodium citrate in 1:9 ratio, and centrifuged at 1000 g for 10 minutes in order to obtain plasma having a high platelet content (PRP) and at 3000 g for 15 minutes in order to obtain plasma having a low platelet content (PPP). Two […] PRP samples (300,000+/−10000 platelet/ml final concentration) were submitted to incubation at 37° C. for 60 seconds in presence of 100 μl FTT (700 μg/ml) and 10 μl of Asialene ([…]) respectively. Each sample was divided in three portions which were treated with 10 μl of a platelet aggregation agent, ADP ([…] final concentration), collagen (4 μg/ml final concentration) and arachidonic acid (0.2 mg/ml final concentration) respectively, and the aggregation was recorded for 4 minutes.
# human endothelial cells [3] = experiment: Fibronectin evaluation (immunofluorescence, intercellular strands) in human endothelial cells in culture; type: cell-based; settings: 1.5 μg/ml; after 48 hours; culture medium + EtOH 0.75 g/dl
# Description: (§1) 1. Test of Production of PG1 and of Fibronectin from Human Endothelial Cells in Culture.
# For the Fibronectin evaluation, the primary cultures were resuspended in 0.05% Trypsin/0.02% EDTA. The cells, washed twice in Hanks solution, were counted in order to assure at least 300,000 cells/ml and seeded. After 48 hours the supernatant was removed and the slides were prepared, which after being washed 2 times with PBS, and dried, were fixed in acetic acid/ethanol for 30 minutes; a washing with PBS was then carried out and added the polyclonal rabbit anti-human fibronectin antibody (1:40, Dako). After incubation at room temperature for 30 minutes, it was washed with PBS and the fluoresceinated anti-rabbit immunoglobulin antibody was added (1:100, Dako). The slides were left in incubation for 30 minutes and then mounted on an object holder and read with a fluorescence electronic microscope.
# In the following table, the numbers relating to fibronectin intercellular strands (1:100 scale) are reported.
# human endothelial cells [4] = experiment: Production of PG1 (6-Keto PGF1, RIA) from human endothelial cells in culture; type: cell-based; settings: Asialene 1.5 μg/ml, culture medium + EtOH 0.75 g/dl
# Description: as §1
# The activity of the salt prepared in the Example 1, indicated as Asialene, on cicatrization was evaluated by an in vitro test which allows to deduce the effects of the substance on the vascular permeability and on the cicatrization.
# The test consists in the evaluation of the production of PG1 from cells extracted by collagenase from vein of human omphalic funicle suspended and seeded in a suitable culture medium (E199+FCS 20%+L-Glutamine 2 mM+Penicillin 200 U/ml+Streptomycin 200 μg/ml) cultured in 75 or 25 ml flasks for 48-72 hours.
# After removing the cells with 0.05% Trypsin and 0.02% EDTA the subcultures were prepared using secondary cultures seeded on a 35 mm Petri dish, kept in an incubator with 5% CO2 and 100% humidity. For the evaluation of the cell morphology and confluence and the PG1 production, about 300,000 cells/ml of culture medium were used carrying out the count in a Burker chamber, following three schemes: • 1. Cells+culture medium+EtOH(0.75 g/dl) • 2. Cells+culture medium+EtOH(0.75 g/dl)+FTT([…]) • 3. […]
# The cultures were evaluated with an inverse light microscope, at 24 and 48 hours monitoring cell attachment and growth while on supernatant aliquots the stable metabolite of the prostacyclin (6-Keto PGF1) was assayed with RIA method. […]
compound,measurement,setting,value
"COc1ccc2c(c1)c(CC(=O)O)c(C)n2C(=O)c1ccc(Cl)cc1 [Indomethacin, indomethacin, reference compound]",ID50 (dose level able to reduce by 50% the oedematous response),[1],90 μg/cm^2
same,Inhibition (%) of oedema,[1]; topical dose 90 μg/cm^2,49.3%
same,Oedema (mg) m ± E.S.,[1]; topical dose 90 μg/cm^2,3.5 ± 0.4 mg
"C[C@@H]1CC[C@]2(C(=O)O)CC[C@]3(C)C(=CCC4[C@@]5(C)C[C@@H](O)[C@H](O)[C@@](C)(CO)C5CC[C@]43C)C2[C@H]1C (stereo partly drawn) [asiatic, 2α, 3β, 23-trihydroxyurs-12-en-28-oic acid]",solubility in water,[2],almost total insolubility in water
C[C@H]1[C@H](C)CC[C@]2(C(=O)O)CC[C@]3(C)C(=CC[C@@H]4[C@@]5(C)C[C@@H](O)[C@H](O)[C@@](C)(CO)[C@@H]5[C@H](O)C[C@]43C)[C@H]12 [madecassic acid],solubility in water,[2],almost total insolubility in water
Salt of the Asiatic Acid with Ethylenediamine [Asialene],Aggregation from arachidonic acid (0.2 mg/ml),platelet; controls 81,23
same,Aggregation from ADP (4 mM),platelet; controls 88,32
same,Aggregation from collagen (4 μg/ml),platelet; controls 100,50
same,fibronectin intercellular strands (1:100 scale),human endothelial cells [3],85
same,ID50 (dose level able to reduce by 50% the oedematous response),[1],62 μg/cm^2
same,Inhibition (%) of oedema,[1]; topical dose 30 μg/cm^2,27.5%
same,Oedema (mg) m ± E.S.,"[1]; topical dose 30 μg/cm^2, control 6.9 ± 0.2",5.0 ± 0.4 mg
same,Inhibition (%) of oedema,[1]; topical dose 100 μg/cm^2,68.1%
same,Oedema (mg) m ± E.S.,"[1]; topical dose 100 μg/cm^2, control 6.9 ± 0.2",2.2 ± 0.5 mg
same,Inhibition (%) of oedema,[1]; topical dose 300 μg/cm^2,91.3%
same,Oedema (mg) m ± E.S.,"[1]; topical dose 300 μg/cm^2, control 6.9 ± 0.2",0.6 ± 0.1 mg
same,Inhibition (%) of oedema,[1]; topical dose 1000 μg/cm^2,94.2%
same,Oedema (mg) m ± E.S.,"[1]; topical dose 1000 μg/cm^2, control 6.9 ± 0.2",0.4 ± 0.1 mg
same,potency higher than that of the reference drug (comparison between the ID50 values),[1]; versus indomethacin,50%
same,6-Keto PGF1,human endothelial cells [4]; 24 h,980 µg/mL
same,6-Keto PGF1,human endothelial cells [4]; 48 h,889 µg/mL
